{"source": "patent US8268635B2", "about": "“Methods of identifying agents that selectively activate p38 and/or NKkB signaling” (priority 2006, dated 2012)", "key": {"JNK [1]": {"tested_on": "JNK", "assay": "JNK activity in HUVEC (GST-jun solid phase assay)", "type": "cell-based, human", "details": "15 min; TNF 100 and 1000 U/ml, TNF70-80 1-50 μM", "method": "(§1) The level of myelin basic protein phosphorylation was quantitated by an Instant Imager.\n(§2) KHS (hereon referred to as “GCKR”) activity was assayed as described previously using myelin basic protein as a substrate (Shi, C. S., Leonardi, A., Kyriakis, J., Siebenlist, U., and Kerhl, J. H. (1999) J. Immunol. 163: 3279-3285). ASK-1 activation was determined in immunoprecipitates of ASK-1 by autophosphorylation (Kyriakis, J. M., and Auruch, J. (2001) Physiol. Rev. 81: 807-869). p38 and ERK activities were determined as described using myelin basic protein as a substrate (Hii, C. S., Huang, Z. H., Bilney, A., Costabile, M., Murray, A. W., Rathjen, D. A., Der, C. J., and Ferrante, A. (1998) J. Biol. Chem. 273: 19277-19282). […] A solid phase assay using glutathione-S-transferase (GST)-conjugated-jun (1-79) was employed to assay JNK activity (Hii, C. S., Huang, Z. H., Bilney, A., Costabile, M., Murray, A. W., Rathjen, D. A., Der, C. J., and Ferrante, A. (1998) J. Biol. Chem. 273: 19277-19282). Phosphorylated ASK-1, myelin basic protein and GST-jun (1-79) were fractionated on 8, 16 and 12% SDS polyacrylamide gels, respectively, and the bands were detected and radioactivity determined using an Instant Imager (Packard Instruments, Canberra, Australia)."}, "p38 [2]": {"tested_on": "p38", "assay": "p38 activity in HUVEC (immunoprecipitation, myelin basic protein substrate)", "type": "cell-based, human", "details": "5 min; TNF 1,000 U/ml, peptides 10 μM", "method": "as §1, §2"}, "E-selectin": {"tested_on": "E-selectin", "assay": "E-selectin expression on endothelial cells", "type": "cell-based, human", "details": "TNF 100 or 1000 U/ml, TNF70-80 1-50 μM; data not presented"}, "ERK1/ERK2": {"tested_on": "ERK1/ERK2", "assay": "ERK1/ERK2 activation in neutrophils in suspension", "type": "cell-based, human", "details": "TNF, TNF70-80 15 min; PMA 100 nM 5 min", "method": "The cells were lysed and the lysate assessed by western blot analysis for the level of dual-phosphorylated ERK1/ERK2 (top panel) and ERK2 protein (bottom panel). […] The level of myelin basic protein phosphorylation was quantitated by an Instant Imager.\nNeutrophils were prepared from peripheral blood of healthy donors by a rapid single-step technique (Kumaratilake, L. M., Rathjen, D. A., Mack, P., Widmer, F., Prasertsiriroj, V., and Ferrante, A. (1995) J. Clin. Invest. 95: 2315-2323) using Hypaque-Ficoll and according to the institution's guidelines on human ethics. […]\n(§3) KHS (hereon referred to as “GCKR”) activity was assayed as described previously using myelin basic protein as a substrate (Shi, C. S., Leonardi, A., Kyriakis, J., Siebenlist, U., and Kerhl, J. H. (1999) J. Immunol. 163: 3279-3285). ASK-1 activation was determined in immunoprecipitates of ASK-1 by autophosphorylation (Kyriakis, J. M., and Auruch, J. (2001) Physiol. Rev. 81: 807-869). p38 and ERK activities were determined as described using myelin basic protein as a substrate (Hii, C. S., Huang, Z. H., Bilney, A., Costabile, M., Murray, A. W., Rathjen, D. A., Der, C. J., and Ferrante, A. (1998) J. Biol. Chem. 273: 19277-19282). […]"}, "JNK [3]": {"tested_on": "JNK", "assay": "JNK activity in adherent neutrophils", "type": "cell-based, human", "details": "neutrophils pre-adhered to plasma-coated dishes; 15 min; TNF 1000 U/ml, TNF70-80 10 μM", "method": "Neutrophils were prepared from peripheral blood of healthy donors by a rapid single-step technique (Kumaratilake, L. M., Rathjen, D. A., Mack, P., Widmer, F., Prasertsiriroj, V., and Ferrante, A. (1995) J. Clin. Invest. 95: 2315-2323) using Hypaque-Ficoll and according to the institution's guidelines on human ethics. […] These were either used as cells in suspension or as adhered neutrophils by adding the cells to plasma coated plates as previously described (Powell, W., Gravel, S., Halwani, F., Hii, C. S., Huang, Z. H., Tan, A. M., and Ferrante, A. (1997) J. Immunol. 159: 2952-2959).\nas §3"}, "p38 [4]": {"tested_on": "p38", "assay": "p38 activation in 70Z/3 cells transfected with hTNFR1 constructs", "type": "cell-based, mouse", "method": "The cells were then lysed, protein contents quantified and subjected to p38 kinase assay by Western blot. The results are presented as the mean+−sem of 3 experiments.\nThe cells were maintained in RPMI-1640 medium with 4.5 g/L glucose, 2 mM L-glutamine, […] 2-mercaptoethanol and 10% FCS in an atmosphere of 95% air and 5% CO2. Cells were plated onto 10 cm plates at 4×10^7 cells in 15 ml culture medium. Before performing transient transfection, plasmid DNA (hTNFR1), kindly provided by Dr M. Kronke, Institute of Medical Microbiology and Hygiene, Medical Center University of Cologne, Koln, Germany (Adam, D., Wiegmann, K., Adam-Klages, S., Ruff A., and Kronke, M. (1996) J. Biol. Chem. 271: 14617-22), (20 μg in 1 ml of RPMI1640) was mixed with LipofectAMINE 2000 (Invitrogen) (60 μl in 1 ml of RPMI) and the mixture were left at room temperature for 20 min. The mixture was directly added to the cells and incubated for 24 h. The cells were washed twice with HBSS before use."}, "ASK-1": {"tested_on": "ASK-1", "assay": "ASK-1 autophosphorylation in neutrophils", "type": "cell-based, human", "method": "GCKR was immunoprecipitated from cell lysates and activity assayed using myelin basic protein (MBP) as the substrate. […] Activation of ASK-1 was determined by kinase autophosphorylation.\nas §2"}, "[5]": {"tested_on": "mutant receptor peptide M4", "assay": "Binding of biotinylated TNF70-80 to mutant receptor peptide M4", "parameters": "species or system human", "details": "20 μM biotinylated TNF70-80, 18 hrs at 37° C.", "method": "(§4) 100 μl of 0.7 mM solution of M4 or 1% BSA in PBS for control was coated on plates overnight for 24 hrs at 37° C. Plates were blocked for 6 hrs at 37° C. with 3% BSA in PBS. 100 μl of 20 μM of B-TNF70-80 was added to each well and allowed to incubate for 18 hrs at 37° C. Streptavidin-horseradish peroxidase and TMB H2O2 was added and bound product was detected by measuring absorbance at 450 nm.\nas §4, with “Streptvadin-horseradish” for “Streptavidin-horseradish”"}, "macrophage": {"tested_on": "macrophage", "details": "previous comparisons; cited from earlier work"}}, "note": "“Also recorded” adds a separate entry of the source. Where no end group is shown, it is not given here.", "data": [{"substance": "PSTHVLITHTI-OH [TNF70-80]", "values": [{"measurement": "activity of JNK in HUVEC", "setting": "JNK [1]", "value": "failed to stimulate the activity of JNK"}, {"measurement": "activity of p38 in HUVEC", "setting": "p38 [2]", "value": "stimulated the activity of p38"}, {"measurement": "expression of E-selectin on endothelial cells", "setting": "E-selectin", "value": "but not TNF70-80 (1-50 μM) stimulated the expression of E-selectin"}, {"measurement": "activity/dual phosphorylation of ERK in neutrophils in suspension", "setting": "ERK1/ERK2", "value": "neither TNF nor TNF70-80 stimulated the activity of either JNK or ERK"}, {"measurement": "activity of JNK in adherent neutrophils", "setting": "JNK [3]", "value": "but not TNF70-80 stimulated the activity of JNK"}, {"measurement": "p38 activity in 70Z cells transfected with an empty vector", "setting": "p38 [4]", "value": "did not stimulate the activity of p38"}, {"measurement": "p38 activity in 70Z cells, TNF receptor with C1-C3 deleted", "setting": "p38 [4]", "value": "still able to stimulate p38 activity"}, {"measurement": "p38 activity in 70Z cells, TNF receptor with C1-C4 deleted", "setting": "p38 [4]", "value": "retained its ability to stimulate p38 activity"}, {"measurement": "p38 activity in 70Z cells, TNF receptor with C1 domain deleted", "setting": "p38 [4]", "value": "able to stimulate the activity of p38"}, {"measurement": "p38 activation in 70Z/3 cells transfected with wild type hTNFR1", "setting": "p38 [4]; 5 min, TNF 1000 U/ml, peptides 10 μM", "value": "caused the activation of p38; also recorded: stimulated the activity of p38 in cells transfected with wild type receptors"}, {"measurement": "p38 activation in non-transfected 70Z/3 cells", "setting": "p38 [4]; cells lacking TNFR, 5 min, TNF 1000 U/ml, peptides 10 μM", "value": "neither TNF nor TNF70-80 activated p38"}, {"measurement": "ASK-1 phosphorylation in non-adherent neutrophils", "setting": "ASK-1; data not shown", "value": "not altered"}, {"measurement": "ASK-1 phosphorylation in adherent neutrophils", "setting": "ASK-1; plasma-coated dishes, 3 or 7 min", "value": "neither TNF nor TNF70-80 increased the level of ASK-1 phosphorylation"}, {"measurement": "binding to mutant receptor peptide M4 (truncated receptor)", "setting": "[5]", "value": "binds to the truncated receptor"}, {"measurement": "concentration that equates to 1000 U/ml of TNF in ability to stimulate nitric oxide production in macrophage", "setting": "macrophage", "value": 5.0, "unit": "µg/mL"}]}]}
